Results as given in patent publication US9757455B2, “Oral therapeutic compound delivery system” (Johnson & Johnson Consumer Inc., priority 2005, dated 2017).
Values after ≈ are worked out from the molar mass of the structure shown. Structures can show the parent of a compound that is named as a salt. Where two headings read alike, the source gives them in different places. Marks after values point to notes of the source that are not given here.

Tests used:
[1] = Dissolution, USP dissolution apparatus 2, 900 mL 0.0033 N hydrochloric acid, 30 rpm, 37° C.; format: physicochemical; conditions: basic and amphoteric drugs in formulations according to the invention (Table 32)
Procedure: (§1) Testing was conducted in a dissolution medium containing 900 mL 0.0033 N hydrochloric acid (HCl) at 37° C. which discriminates better between fast dissolving formulations than more acidic dissolution media where the effect of high acid concentration tends to mask formulation effects on dissolution. 900 mL of this medium contains the absolute amount of acid estimated to be present in the gastric contents in vivo, namely 3 millimoles.
(§2) Testing at was conducted at a stirring speed of 30 rpm and also at 0 rpm which provides more discrimination between formulations. To achieve maximum dissolution, the stirring speed was increased to 250 rpm for 10 minutes after 20 minutes for measurements at 30 rpm, and after 60 minutes for measurements at 0 rpm.
(§3) Unless otherwise stated, drug concentrations were measured using a Varian Cary 50 UV-Vis Spectrophotometer set at an appropriate wavelength using flow through cells for automatic continuous sampling. For each drug, the optimal wavelength was selected after running UV scans in the dissolution medium.
A suitable C18 column and guard column were used. Results were processed using Waters Empower software.

[2] = Dissolution, USP dissolution apparatus 2, 900 mL 0.0033 N hydrochloric acid, 0 rpm, 37° C.; format: physicochemical; conditions: for % dissolved in 900 mL 0.0033 N HCl: basic and amphoteric drugs in formulations according to the invention (Table 32), 0 rpm
Procedure: as §1
Dissolution results without stirring may be of in vivo significance in conditions where there is gut stasis or reduced gastric activity.
as §2, §3

[3] = Solubility in water; conditions: for solubility: water
[4] = 30 minutes, 30 rpm (increased to 250 rpm after 20 minutes)
[5] = pH modulating agent: Bicarb + acid, 300 sec (Table 33)
[6] = pH modulating agent: Bicarb + acid, 15 min (Table 33)
[7] = pH modulating agent: Bicarb + acid, 30 min (Table 33)
[8] = pH modulating agent: Bicarbonate, 300 sec (Table 33)
[9] = pH modulating agent: Bicarbonate, 15 min (Table 33)
[10] = pH modulating agent: Bicarbonate, 30 min (Table 33)
[11] = dose (mg) of each drug as in Table 78

Compound | % dissolved in 900 mL 0.0033 N HCl ([1]; 180 sec, 30 rpm) [%] | % dissolved in 900 mL 0.0033 N HCl ([1]; 300 sec, 30 rpm) [%] | % dissolved in 900 mL 0.0033 N HCl ([1]; 15 minutes, 30 rpm) [%] | % dissolved in 900 mL 0.0033 N HCl [1, 4] [%] | % dissolved in 900 mL 0.0033 N HCl ([2]; 180 sec) [%] | % dissolved in 900 mL 0.0033 N HCl ([2]; 300 sec) [%] | % dissolved in 900 mL 0.0033 N HCl ([2]; 15 minutes) [%] | % dissolved in 900 mL 0.0033 N HCl ([2]; 30 minutes) [%] | Volume (mL) of water to dissolve dose [3, 11] [mL] | Effect of ↑ pH on solubility [3] | other results
Cc1nnc2n1-c1ccc(Cl)cc1C(c1ccccc1)=NC2 [Alprazolam] | 61 | 67 | 77 | 100 | 13 | 20 | 45 | 63 | 14 | – | % drug dissolved in 900 mL 0.0033 N HCl at 0 rpm [2, 5]: 20%; % drug dissolved in 900 mL 0.0033 N HCl at 0 rpm [2, 6]: 45%; % drug dissolved in 900 mL 0.0033 N HCl at 0 rpm [2, 7]: 63%; % drug dissolved in 900 mL 0.0033 N HCl at 0 rpm [2, 8]: 1%; % drug dissolved in 900 mL 0.0033 N HCl at 0 rpm [2, 9]: 4%; % drug dissolved in 900 mL 0.0033 N HCl at 0 rpm [2, 10]: 4%
Cc1ccc(-c2cc(C(F)(F)F)nn2-c2ccc(S(N)(=O)=O)cc2)cc1 [Celecoxib] | – | – | – | – | – | – | – | – | – | ⇄ | solubility [3]: 3.46 µg/mL (≈ 9.07 µM)
C[C@@H]1C[C@H]2[C@@H]3CCC4=CC(=O)C=C[C@]4(C)[C@@]3(F)[C@@H](O)C[C@]2(C)[C@@]1(O)C(=O)CO [Dexamethasone] | – | – | – | – | – | – | – | – | – | ⇄ | –
O=C(O)Cc1ccccc1Nc1c(Cl)cccc1Cl [Diclofenac potassium] | – | – | – | – | – | – | – | – | – | ↑ | Volume of water (mL) to dissolve dose ([3]; dose per tablet as in label): 7 mL; solubility [3]: 10000 µg/mL
CN1CCC[C@@H]1Cc1c[nH]c2ccc(CCS(=O)(=O)c3ccccc3)cc12 [Eletriptan hydrochloride, Eletriptan hydrobromide] | 94 | 96 | 97 | 99 | 88 | 95 | 98 | 100 | 4 | – | –
Cc1ccc(C)c(OCCCC(C)(C)C(=O)O)c1 [Gemfibrozil] | – | – | – | – | – | – | – | – | – | ↑ | Volume of water (mL) to dissolve dose ([3]; dose per tablet as in label): 20,690 mL; solubility [3]: 29 µg/mL (≈ 116 µM)
CC(C)Cc1ccc(C(C)C(=O)O)cc1 (centres unmarked) [Ibuprofen] | – | – | – | – | – | – | – | – | – | ↑ | solubility [3]: 40 µg/mL (≈ 194 µM)
CN(C)C(=O)C(CCN1CCC(O)(c2ccc(Cl)cc2)CC1)(c1ccccc1)c1ccccc1 [Loperamide hydrochloride] | 82 | 84 | 89 | 100 | 70 | 72 | 87 | 95 | – | – | % drug dissolved in 900 mL 0.0033 N HCl at 0 rpm [2, 5]: 72%; % drug dissolved in 900 mL 0.0033 N HCl at 0 rpm [2, 6]: 87%; % drug dissolved in 900 mL 0.0033 N HCl at 0 rpm [2, 7]: 95%; % drug dissolved in 900 mL 0.0033 N HCl at 0 rpm [2, 8]: 27%; % drug dissolved in 900 mL 0.0033 N HCl at 0 rpm [2, 9]: 43%; % drug dissolved in 900 mL 0.0033 N HCl at 0 rpm [2, 10]: 101%; Volume (mL) of water to dissolve dose [3]: 2 mL
O=C1Nc2ccc(Cl)cc2C(c2ccccc2Cl)=NC1O (centres unmarked) [Lorazepam] | 77 | 88 | 96 | 100 | 77 | 85 | 95 | 99 | – | – | % drug dissolved in 900 mL 0.0033 N HCl at 0 rpm [2, 5]: 85%; % drug dissolved in 900 mL 0.0033 N HCl at 0 rpm [2, 6]: 95%; % drug dissolved in 900 mL 0.0033 N HCl at 0 rpm [2, 7]: 99%; % drug dissolved in 900 mL 0.0033 N HCl at 0 rpm [2, 8]: 6%; % drug dissolved in 900 mL 0.0033 N HCl at 0 rpm [2, 9]: 6%; % drug dissolved in 900 mL 0.0033 N HCl at 0 rpm [2, 10]: 11%
CCN(CC)CCNC(=O)c1cc(Cl)c(N)cc1OC [Metoclopramide hydrochloride] | 94 | 95 | 97 | 100 | 26 | 69 | 86 | 91 | 50 | – | % drug dissolved in 900 mL 0.0033 N HCl at 0 rpm [2, 5]: 69%; % drug dissolved in 900 mL 0.0033 N HCl at 0 rpm [2, 6]: 86%; % drug dissolved in 900 mL 0.0033 N HCl at 0 rpm [2, 7]: 91%; % drug dissolved in 900 mL 0.0033 N HCl at 0 rpm [2, 8]: 5%; % drug dissolved in 900 mL 0.0033 N HCl at 0 rpm [2, 9]: 28%; % drug dissolved in 900 mL 0.0033 N HCl at 0 rpm [2, 10]: 46%
Cc1nccn1CC1CCc2c(c3ccccc3n2C)C1=O (centres unmarked) [Ondansetron hydrochloride] | 88 | 96 | 100 | 100 | 50 | 65 | 79 | 85 | 4 | – | Solubility in water [3]: 2.42 mg/mL
C[C@]12C=CC(=O)C=C1CC[C@@H]1[C@@H]2[C@@H](O)C[C@@]2(C)[C@H]1CC[C@]2(O)C(=O)CO [Prednisolone] | – | – | – | – | – | – | – | – | – | – | Volume of water (mL) to dissolve dose ([3]; dose per tablet as in label, listed as Prednisolone 5 mg): 23 mL; Volume of water (mL) to dissolve dose ([3]; dose per tablet as in label, listed as Prednisolone 25 mg): 114 mL
CN(C)CCc1c[nH]c2ccc(Cn3cncn3)cc12 [Rizatriptan benzoate] | 96 | 96 | 96 | 97 | 94 | – | 100 | 100 | 0.3 | – | Solubility in water ([3]; solubility of the base not salt): 42* mg/mL
CN1C(=O)C(O)N=C(c2ccccc2)c2cc(Cl)ccc21 (centres unmarked) [Temazepam] | – | – | – | – | – | – | – | – | – | – | Volume of water (mL) to dissolve dose [3]: 83 mL
CN(C)CCc1c[nH]c2ccc(C[C@H]3COC(=O)N3)cc12 [Zolmitriptan] | 73 | 76 | 86 | 98 | 66 | 77 | 88 | 96 | 2 | – | –
